Settings: rabbit, 40 mg/ml in water with no buffer, 2 mA-4 min
Source text: The assignee made some comparative tests on rabbits done with a first iontophoresis device having cylindrical outer and inner walls (as known in the prior art) and a second iontophoresis device as shown in FIG. 7 (i.e. the inner wall 26 and outer wall 24 being tapered with the same inclination angle).
The two devices were designed for having the same: • application surface 2; • distance between the active electrode 10 and the application surface 2.
The area of the active electrode 30 of the second device was about three times more important than those of the first device.
For each comparative test, iontophoresis conditions were the same (2 mA-4 min).
After iontophoresis, rabbit ocular tissues were sampled. Tissues sampled included choroids and retina.
Concentrations of active substances 30 in these ocular tissues were then measured.

C[C@@H]1C[C@H]2[C@@H]3CCC4=CC(=O)C=C[C@]4(C)[C@@]3(F)[C@@H](O)C[C@]2(C)[C@@]1(O)C(=O)COP(=O)([O-])[O-].[Na+].[Na+] [Dexamethasone Disodium Phosphate]
Increase of tissue concentration, second device versus first device, choroids: 3.7
Times more active substance in the tissues with second (tapered) device than with first (cylindrical) device (choroids and retina): At least three

— patent publication US9238131B2, “Ocular iontophoresis device” (priority 2005, dated 2016)
